# Measurements reported in US7951814B2, “Quinazolinedione derivatives as TRPA1 modulators” (Glenmark Pharmaceuticals, S.A., priority 2008, dated 2011).
# Where two headings read alike, the source gives them in different places.
# Experiments:
# male SD rats [1] = assay: Formalin-induced nocifensive behaviour; format: in vivo, rat; details: 10 mg/kg, p.o., given 1.5 h (compound 10) or 3 h (compound 37) prior to formalin (2.5%)
# Source text: (§1) The illustrative examples of the present invention are screened for ‘in vivo’ TRPA1 based efficacy in various models of pain/hyperalgesia according to modified procedures described in (a) McNamara C R et al., PNASU (2007), 104, 13525-13530 (b) Eid S R et al., Molecular Pain, (2008), 4, 48 (c) Bennett G J and Xie Y K, Pain (1988), 33, 87-107. The screening of the compounds can also be carried out by some other methods and procedures known to persons skilled in the art.
# Formalin-Induced Nocifensive Behaviour
# Formalin also induces nocifensive behaviour (paw flinching and licking responses) in rats and mice. TRPA1-deficient mice show marked attenuation of characteristic paw flinching and licking responses as a result of intraplantar injection of formalin in a characteristic early and late phase manner. This model also serves as a selective TRPA1 based mechanistic model.
# Compound 10 and compound 37 inhibited the formalin-induced nocifensive licking behaviour in both early & late phases in male SD rats.
# [2] = Plasma levels after oral dosing in the rat pain models; format: in vivo; details: for concentration at 2 h / concentration at 4 h: Sprague-Dawley, AITC model; for concentration at 2 h: p.o.
# rats = assay: FCA (Freund's Complete Adjuvant)-induced inflammatory mechanical hyperalgesia; format: in vivo, rat; details: for maximum efficacy against FCA-induced mechanical hyperalgesia: rats
# Source text: as §1
# FCA (Freund's Complete Adjuvant)-Induced Inflammatory Hyperalgesia
# Freund's Complete Adjuvant (FCA), containing heat killed, dried Mycobaterium tuberculosis (1 mg/ml) emulsified in mineral oil and mannide monooleate, when injected (30 μl) into the plantar region of the paw of mice and rats induces an inflammatory hyperalgesia. Mechanical hyperalgesia (24 h after injection) was assessed by measuring hind paw withdrawal thresholds to an increasing pressure (g) stimulus, using the Randall-Sellitto analgesymeter (37215, Ugo Basile, Italy) fitted with a wedge-shaped probe.
# male SD rats [3] = assay: Chronic Constriction Injury (CCI)-induced neuropathic pain (Bennett's model); format: in vivo, rat
# Source text: as §1
# Chronic Constriction Injury (CCI)-Induced Neuropathic Pain (Bennett's Model)
# Chronic constriction injury (CCI) of sciatic nerve in rats and mice induces inflammatory mechanical hyperalgesia in this Bennet's neuropathic pain model. Rats were anesthetized using ketamine/xylazine (40/5 mg/kg, i.p.) and the left sciatic nerve was exposed at mid thigh level through a small incision. Four loose ligatures of 4-0 chromic cat gut (Ethicon-Johnson & Johnson) at 1 mm space were placed around the sciatic nerve […] of common sciatic nerve. After 6-7 days, mechanical hyperalgesia was assessed by measuring hind paw withdrawal thresholds to an increasing pressure (g) stimulus, using the Randall-Sellitto analgesymeter (Ugo Basile, Italy), fitted with a wedge-shaped probe.
# [4] = target: T1, Human TRPA1 expressing CHO cells (Homo sapiens, UniProt O75762); assay: 45Calcium uptake assay: inhibition of AITC induced cellular uptake of radioactive calcium; format: cell-based; details: AITC 30 μM, human TRPA1 CHO cells; for inhibition at 1 µM: 1.0 μM test compound, read-out: Percentage inhibition at 1.0 μM; for inhibition at 10 µM: 10.0 μM test compound, read-out: Percentage inhibition at 10.0 μM; for IC50: read-out: IC50 value (range)
# T1 construct: expressed in transfected cells; host or cells: CHO cells (under G-418 selection)
# Summary of the method: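 CHO cells expressing human TRPA1 were preincubated 10 min with compound (0.5% DMSO final), then stimulated 3 min with 30 μM AITC plus 5 μCi/ml 45Ca2+. Lysate radioactivity gave % of maximal uninhibited response; IC50 by nonlinear regression.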
# male SD rats [5] = assay: AITC-induced nocifensive behaviour in rats; format: in vivo, rat; details: 10 mg/kg, p.o., AITC 5%
# Source text: as §1
# AITC-Induced Nocifensive Behaviour in Rats
# Allyl isothiocyanate (AITC), a selective activator of TRPA1 receptor channel, induces nocifensive behavior (paw flinching and licking responses) in rats. The number of flinches and licking responses were counted for 45 min following the injection of 5% AITC into the plantar region of the paw. AITC being an activator of TRPA1 receptor, this model serves as a mechanistic validation for screened molecules as selective antagonists at TRPA1 channel receptor.
# [6] = rat, plasma, oral, 10 mg/kg, male SD rats
# T1 sequence (O75762 whole entry): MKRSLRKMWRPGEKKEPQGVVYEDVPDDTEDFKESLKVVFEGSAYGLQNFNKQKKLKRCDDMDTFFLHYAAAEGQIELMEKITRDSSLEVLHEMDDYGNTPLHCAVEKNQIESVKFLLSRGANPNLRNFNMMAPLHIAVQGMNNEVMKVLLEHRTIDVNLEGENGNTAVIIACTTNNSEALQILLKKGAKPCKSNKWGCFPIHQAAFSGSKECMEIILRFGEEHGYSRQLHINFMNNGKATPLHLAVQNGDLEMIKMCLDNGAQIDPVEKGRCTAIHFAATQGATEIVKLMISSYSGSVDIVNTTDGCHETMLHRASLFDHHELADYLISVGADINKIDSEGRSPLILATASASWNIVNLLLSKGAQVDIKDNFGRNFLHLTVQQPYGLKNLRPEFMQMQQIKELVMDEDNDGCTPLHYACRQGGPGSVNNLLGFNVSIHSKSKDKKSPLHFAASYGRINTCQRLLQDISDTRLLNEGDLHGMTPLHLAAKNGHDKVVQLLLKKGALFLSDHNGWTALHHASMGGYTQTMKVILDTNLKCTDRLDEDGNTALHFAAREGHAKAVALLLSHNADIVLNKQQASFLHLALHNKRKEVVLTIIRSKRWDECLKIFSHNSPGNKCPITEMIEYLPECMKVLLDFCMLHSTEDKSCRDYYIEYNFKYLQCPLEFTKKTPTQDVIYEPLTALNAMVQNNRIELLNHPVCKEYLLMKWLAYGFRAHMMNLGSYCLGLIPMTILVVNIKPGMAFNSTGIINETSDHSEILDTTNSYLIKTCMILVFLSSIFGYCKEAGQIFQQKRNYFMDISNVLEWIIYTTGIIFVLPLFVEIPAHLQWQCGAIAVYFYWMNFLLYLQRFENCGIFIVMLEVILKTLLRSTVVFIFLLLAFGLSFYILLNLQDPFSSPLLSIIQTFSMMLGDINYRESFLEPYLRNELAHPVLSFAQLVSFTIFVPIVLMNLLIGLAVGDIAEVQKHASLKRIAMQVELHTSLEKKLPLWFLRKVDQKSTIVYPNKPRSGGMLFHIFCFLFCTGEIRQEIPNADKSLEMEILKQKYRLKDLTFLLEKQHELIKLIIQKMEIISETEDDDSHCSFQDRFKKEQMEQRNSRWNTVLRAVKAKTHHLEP
Compound,inhibition of the early phase nocifensive behaviour (male SD rats [1]),inhibition of the late phase nocifensive behaviour (male SD rats [1]),"plasma levels ([2]; 10 mg/kg, CCI model, male SD rats)","concentration at 2 h ([2]; rat, plasma, oral, 3 mg/kg, male SD rats, read-out: Plasma levels at 2 h)","concentration at 2 h ([2]; rat, plasma, oral, 10 mg/kg, male SD rats, read-out: Plasma levels at 2 h)","concentration at 2 h ([2]; rat, plasma, oral, 3, 5 and 10 mg/kg, male SD rats, read-out: plasma levels at 2 h post-dose (range over doses))","concentration at 0.5 h ([2]; rat, plasma, oral, 10 mg/kg, FCA model, rats)","maximum efficacy against FCA-induced mechanical hyperalgesia (rats; 10 mg/kg, p.o.)","ED50 (rats; Rattus norvegicus, po, doses 1, 3, 6 and 10 mg/kg)","maximum efficacy, reversal of CCI-induced hyperalgesia (male SD rats [3]; 10 mg/kg, acute and chronic administration)","ED50 (male SD rats [3]; Rattus norvegicus, read-out: ED50, CCI-induced neuropathic hyperalgesia)",inhibition at 1 µM [4],inhibition at 10 µM [4],IC50 [4],"concentration at 4 h [2, 6]","concentration at 1 h ([2]; rat, plasma, oral, 30 mg/kg (p.o.), FCA model, rats)",maximum efficacy against FCA-induced mechanical hyperalgesia (rats; 30 mg/kg (p.o.)),inhibition of AITC induced flinching (male SD rats [5])
Cn1c(=O)c2c(CC(=O)Nc3nc(-c4ccc(Cl)cc4)cs3)cccc2n(C)c1=O [Example 10],58%,58%,5100 ng/mL,2080 ng/mL,7380 ng/mL,2080 to 7380 ng/mL,3500 ng/mL,81%,2.7 mg/kg,75%,3.5 mg/kg,99.7%,99.9%,50.1 to 100 nM,,,,
"Cn1c(=O)c2c(CC(=O)Nc3nc(-c4cccc(C(F)(F)F)c4)cs3)cccc2n(C)c1=O [Example 15, N1-[4-(3-Trifluoromethylphenyl)-1,3-thiazol-2yl]-2-(1,3-dimethyl-2,4-dioxo-1,2,3,4-tetrahydro-5-quinazolinyl)acetamide]",,,,,,,,,,,,98%,100%,< 50 nM,9800 ng/mL,3430 ng/mL,~70%,59%
"Cn1c(=O)c2c(CC(=O)Nc3nc(-c4ccc(C(F)(F)F)c(F)c4)cs3)cccc2n(C)c1=O [Example 37, N1-[4-(3-Fluoro-4-trifluoromethylphenyl)-1,3-thiazol-2-yl]-2-(1,3-dimethyl-2,4-dioxo-1,2,3,4-tetrahydro-5-quinazolinyl)acetamide]",18%,59%,,,,,,,,,,97.5%,99.4%,< 50 nM,6200 ng/mL,,,39%
